Data reported in patent US12168781B2, “Production method for T cells or NK cells, medium for culturing T cells or NK cells, method for culturing T cells or NK cells, method for maintaining undifferentiated state of undifferentiated T cells, and growth-accelerating agent for T cells or NK cells” (KIRIN HOLDINGS KABUSHIKI KAISHA, priority 2018, dated 2024).

How the values were obtained:
CD8 T cells = assay: Engraftment into mice of CD8 T cells cultured with the compound; format: in vivo; details: cells cultured 10 days with 1 μM, two weeks after transplantation into NSG mice, FIG. 19(B)
Procedure: The effect of cells cultured with berbamine on engraftment into mice was examined. As a method therefor, CD8 T cells were purified from PBMCs (CTL, Inc.) derived from a healthy subject using CD8 T Cell Isolation Kit, human (Miltenyi, 130-096-495). The purified CD8 T cells (20,000 cells/well) were seeded, and berbamine (BBM) at 1 μM or MilliQ water that is a solvent for the compound as a control was added thereto, and the cells were cultured in the same culture medium by the same stimulation method as in additional Example 6, and the cells cultured for 10 days were used as cells to be transplanted. NSG male mice at 6 to 11 weeks of age (Charles River Japan) were used as experimental animals and transplantation was performed through the tail vein (approximately 4×10^6 cells). Two weeks after the transplantation, the spleen, peripheral blood and bone marrow were collected, and the CD8β and CD45 positive rates were analyzed by FACS. In the FACS, after the spleen and bone marrow were subjected to a homogenization treatment, and the peripheral blood was subjected to a hemolysis treatment, the resulting materials were transferred to a 96-well plate, followed by washing with a staining solution (PBS containing 2% FBS), and then staining with CD8β-PE-cy7 (eBioscience, 25-5273-42) and CD45-APC-Cy7 (BioLegend, 304014). After washing, the cells were resuspended in the staining solution containing PI. An analysis was performed using a BD LSR Fortessa cytometer (BD Bioscience). The positive rate of CD8β(+)CD45(+) cells in the PI-negative cell population analyzed by FlowJo 9 was measured. Note that in a statistical analysis, a Student's t-test was used (*: p<0.05).

[1] = system: regulatory T cells (Treg); assay: Proliferation of regulatory T cells (number of FoxP3-positive cells); format: cell-based, human; details: 1 μM, 6 days, CD3 T cells of 3 healthy donors, FIG. 17
Procedure: The usefulness of berbamine (BBM) in the proliferation of regulatory T cells (Treg) was verified. As a method therefor, CD3 T cells were purified from PBMCs (CTL, Inc.) derived from 3 healthy donor subjects in the same manner as in additional Example 6 and cultured for 6 days. After culturing for 6 days, the number of viable cells was counted by a trypan blue method and the ratio of CD25(+)FoxP3(+) cells was analyzed by FACS.
In the FACS, the cultured cells were sorted into facs tubes, washed with a staining solution (PBS containing 2% FBS), and then stained with CD3-APC (BioLegend, 300421), CD4-BV510 (BioLegend, 317444), CD8-Pacific Blue (BD 558207), and CD25-FITC (BioLegend, 302604).
After the cells were further washed, intracellular staining was performed using FoxP3/Transcription Factor Staining Buffer Set (eBioscience, 00-5523) and FoxP3-PE (eBioscience, 12-4776-41), and measurement was performed using a BD LSRFortessa cytometer (BD Bioscience).
The value obtained by multiplying the positive rate of FoxP3(+) cells in the CD4(+) cells analyzed by FlowJo 9 by the number of viable cells was defined as the number of FoxP3-positive cells.

[2] = system: primary T cells (CD4 T, CD8 T cells); assay: Proliferation of primary T cells purified from PBMCs; format: cell-based, human; details: 1 μM, 6 days, restimulated, further 4 days, FIG. 16
Procedure: The effect of berbamine on proliferation of primary T cells (CD4 T, CD8 T cells) was examined. As a method therefor, CD3 T cells were purified from PBMCs (CTL, Inc.) using Pan T Cell Isolation Kit, human (Miltenyi, 130-096-535). The purified CD3 T cells (20,000 cells/well) were seeded, and berbamine (BBM) at 1 μM or MilliQ water that is a solvent for the compound as a control was added thereto, and the cells were stimulated with CD3/CD28 Dynabeads (60,000 beads/well).
The cells were cultured for 6 days in the same culture medium as in Example 6 and restimulated. After the cells were further cultured for 4 days, the number of viable cells was counted by a trypan blue method and the ratios of CD4-positive cells and CD8-positive cells were analyzed by FACS. […]
After washing, the cells were resuspended in 200 μL/well of the staining solution containing PI. The suspension in an amount of 100 μL/well was analyzed using a BD LSR Fortessa cytometer (BD Bioscience) equipped with HTS, and all cells were recorded.
The value obtained by multiplying the positive rate of CD8(+) or CD4(+) cells in the PI-negative cell population analyzed by FlowJo 9 by the number of viable cells was defined as the number of CD8-positive cells or the number of CD4-positive cells. […]

T-iPS-T cells = assay: Long-term culturing of T-iPS-T cells obtained by differentiation induction using a feeder, trypan blue count; format: cell-based, human; details: 1 μM, FIG. 15(B)
Procedure: Further, evaluation of T-iPS-T cells obtained by differentiation induction using a feeder was also performed. The T-iPS-T cells (1,500 cells/well) obtained by differentiation induction in Example 1 were seeded, and stimulated with CD3/CD28 Dynabeads in the same manner as in Example 4, and berbamine (BBM) at 1 μM or MilliQ water that is a solvent for the compound as a control was added thereto, and the cells were cultured in the same culture medium as in Example 6. The cells were collected on day 14, day 28, and day 42, and the number of viable cells was counted by a trypan blue method, and the cells were restimulated and cultured. The cells were collected on day 56, and the number of viable cells was counted.

In the case of `COc1cc2c3cc1Oc1c(OC)c(OC)cc4c1[C@@H](Cc1ccc(O)c(c1)Oc1ccc(cc1)C[C@@H]3N(C)CC2)N(C)CC4` [berbamine], the “positive rate of CD8β(+)CD45(+) cells (engraftment) compared with cells cultured with MilliQ water” value (CD8 T cells; bone marrow) is reported as “significant engraftment”, the “positive rate of CD8β(+)CD45(+) cells (engraftment) compared with cells cultured with MilliQ water” value (CD8 T cells; peripheral blood) is reported as “significant engraftment” and the “positive rate of CD8β(+)CD45(+) cells (engraftment) compared with cells cultured with MilliQ water” value (CD8 T cells; spleen) is reported as “significant engraftment”. The “number of FoxP3-positive cells compared with MilliQ water” value [1] was “increase in the number of FoxP3-positive cells”, the “number of CD4-positive cells compared with MilliQ water” value [2] was “significant enhancement of cell proliferation” and the “number of CD8-positive cells compared with MilliQ water” value [2] was “significant enhancement of cell proliferation”. For the same molecule, the “period for which the cells could be cultured” value (T-iPS-T cells; restimulated on day 14, 28, 42, MilliQ water control could not be cultured after day 28) was 56 days and the “proliferation of the cells in long-term culturing” value (T-iPS-T cells; vs MilliQ water) was “enhancement of the proliferation of the cells”.
